# Source: publication PMC7400207, “It Takes Two: Dimerization Is Essential for the Broad-Spectrum Predatory and Defensive Activities of the Venom Peptide Mp1a from the Jack Jumper Ant Myrmecia pilosula” (Biomedicines, 2020)
# Like-named read-outs stand apart in the source and are kept apart here.
# Legend:
# Haemonchus contortus = assay: microbe, parasite or virus in culture; format: cell-based
# In short: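 Larval development assay with eggs of anthelmintic-susceptible H. contortus Kirby isolate from infected sheep, on agar with peptides, 26 °C for six days, fed E. coli/nutrient medium after 24 h. Infective L3 larvae counted after Lugol's iodine staining, expressed as % of controls; IC50 from three experiments of duplicates.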
# P. aeruginosa FADDI-PA70 = conditions: taken from Dekan et al.; cited from earlier work
# [1] = test system: mouse dorsal root ganglion (DRG) cells; assay: Calcium imaging of mammalian sensory neurons; format: cell-based; conditions: 1 µM peptide, Fluo-4 calcium imaging, neuronal and non-neuronal cells
# Description: Calcium imaging of a heterogenous population of mouse dorsal root ganglion (DRG) sensory neurons was performed as previously described. In brief, dorsal root ganglion (DRG) cells isolated from 4–8-week-old male C57BL/6 mice under ethics approval TRI/IMB/093/17 (University of Queensland Animal Ethics Committee, approval date 31/03/2017) were dissociated and then plated in Dulbecco’s modified Eagle’s medium (Gibco, Grand Island, NY, USA) containing 10% fetal bovine serum (FBS; Assaymatrix, Melbourne, Australia) and penicillin/streptomycin (Gibco) on a 96-well poly-D-lysine–coated culture plate (Corning, Lowell, MA, USA), and maintained overnight. Cells were loaded with Fluo-4 AM calcium indicator as per the manufacturer’s instructions (Thermo Fisher Scientific, Grand Island, NY, USA). After loading for 1 h, the dye solution was replaced with assay solution (Hanks’ balanced salt solution and 20 mM HEPES). Fluorescence corresponding to intracellular calcium ([Ca^2+]i) of typically 100–150 DRG cells per experiment was monitored in parallel using a Nikon Ti-E deconvolution inverted microscope, equipped with a Lumencor Spectra LED light source. Images were acquired at a 20× objective at one frame/s (excitation 485 nm; emission 521 nm). For each experiment, baseline fluorescence was monitored for 30 s and then a wash of assay solution was applied.
smiles,measurement,setting,value
"CC[C@H](C)[C@H](N)C(=O)N[C@@H](CC(=O)O)C(=O)N[C@@H](Cc1c[nH]c2ccccc12)C(=O)N[C@@H](CCCCN)C(=O)N[C@@H](CCCCN)C(=O)N[C@H](C(=O)N[C@@H](CC(=O)O)C(=O)N[C@@H](Cc1c[nH]c2ccccc12)C(=O)N[C@@H](CCCCN)C(=O)N[C@@H](CCCCN)C(=O)N[C@H](C(=O)N[C@@H](CO)C(=O)N[C@@H](CCCCN)C(=O)N[C@@H](CCCCN)C(=O)N[C@H](C(=O)N[C@H]1CSSC[C@@H](C(=O)N[C@@H](CCCCN)C(=O)N[C@@H](CCCCN)C(=O)N[C@H](C(=O)N[C@@H](CC(C)C)C(=O)N[C@@H](CCCCN)C(=O)N[C@@H](CCC(N)=O)C(N)=O)C(C)C)NC(=O)[C@H](C(C)C)NC(=O)[C@H]([C@@H](C)O)NC(=O)[C@H](CCCCN)NC(=O)[C@H](C(C)C)NC(=O)[C@H](CC(C)C)NC(=O)[C@H](C(C)C)NC(=O)[C@@H](NC(=O)[C@@H](NC(=O)CNC(=O)[C@H](CCCCN)NC(=O)[C@H](CO)NC(=O)[C@@H](NC(=O)[C@H](CC(C)C)NC(=O)CNC(=O)[C@@H](NC(=O)[C@@H](N)CC(C)C)[C@@H](C)CC)C(C)C)[C@@H](C)O)CSSC[C@@H](C(=O)N[C@@H](CCCCN)C(=O)N[C@@H](Cc2ccccc2)C(=O)N[C@@H](CC(C)C)C(N)=O)NC(=O)[C@H](C)NC(=O)[C@H](CCCCN)NC(=O)[C@H](CC(C)C)NC(=O)[C@H](CCSC)NC(=O)[C@H](C(C)C)NC(=O)[C@H](CCCCN)NC1=O)[C@@H](C)O)C(C)C)C(C)C [Analogue 1a, ∆-myrtoxin-Mp1a]",IC50,"Haemonchus contortus; H. contortus Kirby isolate, egg to infective L3, 6 days, 26 °C, three experiments of duplicate assays, ± SEM, for 1a the component at higher concentrations (about 90% of population), read-out: Anthelmintic Activity (IC50), inhibition of larval development",6.8 ± 0.5 µM
same,IC50,"Haemonchus contortus; H. contortus larval development, component of the response at < 2 µM, read-out: IC50 for the response observed at lower concentrations (biphasic curve)",0.19 µM
same,Larval development as % of that observed in control assays,Haemonchus contortus; at low micromolar concentrations (< 2 µM),90%
same,Fold more potent than spider-venom peptide Hi1a,"Haemonchus contortus; larval development, same assay",about threefold
same,MIC,P. aeruginosa FADDI-PA70,0.8 µM
same,Effect on [Ca2+]i of DRG cells,[1],rapid increase in [Ca^2+]i in all cells
